The source of these data is US20260284201A1, “COMPOSITIONS AND METHODS FOR TREATING TENDON AND BONE INJURIES” (The United States Government as represented by the …, priority 2023, published 2026).

The subject of series [1] is rat rotator cuff repairs. As to conditions: cited from earlier work.
Series [2] has as its system osteoclasts. As to conditions: cited from earlier work.
Series [3] has as its system canine tendon-to-bone healing. As to conditions: cited from earlier work.
Series [4] relates to osteoporotic rats. Conditions: cited from earlier work.
Series [5] deals with osteoporotic mouse model. As to conditions: 1.25 mg/kg intravenously; cited from earlier work.
Series [6] concerns fracture healing. Conditions: 1.25 mg/kg systemically once per week; cited from earlier work.
In series [7] the test system is mice in space. Briefly: Bone volume among mice in space (unpublished data). Type of series: in vivo. As to conditions: 10 mg/kg once per week.

For `O=P(O)(O)C(O)(Cn1ccnc1)P(=O)(O)O` [zolendronate], in series [1], the tendon-to-bone healing result is recorded as “negative effects on tendon-to-bone healing”.
Take methylhydroxyl diphosphonate: in series [2], the “inhibition of the function of osteoclasts” value is “do not inhibit the function of osteoclasts”.
As for `NCCCC(O)(P(=O)(O)O)P(=O)(O)O` [alendronate], in series [3], the “incidence of suture pull through tendon” value is reported as “lower incidence of suture pull through tendon” and the “ultimate load to failure” value was “improved ultimate load to failure”.
`CC(O)(P(=O)(O)O)P(=O)(O)O` [etidronate]: the “inhibition of the function of osteoclasts” value in series [2] is given as “do not inhibit the function of osteoclasts”.
As for `O=P(O)(O)C(O)(Cc1cccnc1)P(=O)(O)O` [risedronate], the rotator cuff healing entry in series [4] was “beneficial to rotator cuff healing”.

B1: rhNELL-1: recombinant human NELL-1 (protein, UniProt Q92832 22-810, looked up)
Protein kinase C-binding …: FGMDPDLQMDIVTELDLVNTTLGVAQVSGMHNASKAFLFQDIEREIHAAPHVSEKLIQLFRNKSEFTILATVQQKPSTSGVILSIRELEHSYFELESSGLRDEIRYHYIHNGKPRTEALPYRMADGQWHKVALSVSASHLLLHVDCNRIYERVIDPPDTNLPPGINLWLGQRNQKHGLFKGIIQDGKIIFMPNGYITQCPNLNHTCPTCSDFLSLVQGIMDLQELLAKMTAKLNYAETRLSQLENCHCEKTCQVSGLLYRDQDSWVDGDHCRNCTCKSGAVECRRMSCPPLNCSPDSLPVHIAGQCCKVCRPKCIYGGKVLAEGQRILTKSCRECRGGVLVKITEMCPPLNCSEKDHILPENQCCRVCRGHNFCAEGPKCGENSECKNWNTKATCECKSGYISVQGDSAYCEDIDECAAKMHYCHANTVCVNLPGLYRCDCVPGYIRVDDFSCTEHDECGSGQHNCDENAICTNTVQGHSCTCKPGYVGNGTICRAFCEEGCRYGGTCVAPNKCVCPSGFTGSHCEKDIDECSEGIIECHNHSRCVNLPGWYHCECRSGFHDDGTYSLSGESCIDIDECALRTHTCWNDSACINLAGGFDCLCPSGPSCSGDCPHEGGLKHNGQVWTLKEDRCSVCSCKDGKIFCRRTACDCQNPSADLFCCPECDTRVTSQCLDQNGHKLYRSGDNWTHSCQQCRCLEGEVDCWPLTCPNLSCEYTAILEGECCPRCVSDPCLADNITYDIRKTCLDSYGVSRLSGSVWTMAGSPCTTCKCKNGRVCCSVDFECLQNN
With B1, in series [5], the bone formation entry was “lead to bone formation”.

B2: NELL-1-PEG: chemically modified version of NELL-1 protein using polyethylene glycol (PEGylation) (protein, UniProt Q92832 22-810, looked up)
Protein kinase C-binding …: B1 Protein kinase C-binding …
modifications: PEG
For B2, in series [6], the “ectopic bone formation, radiographically or on organ retrieval analysis” value is on record as “no evidence of ectopic bone formation”; the fracture healing entry was “enhance fracture healing”; the toxicology testing entry is on record as “no abnormalities detected on toxicology testing”.

B3: BP-NELL-1-PEG: NELL-1-PEG covalently bound to BP molecules (conjugate, UniProt Q92832 22-810, looked up)
Protein kinase C-binding …: B1 Protein kinase C-binding …
modifications: PEG; bisphosphonate conjugate
With B3, the bone volume entry in series [7] is on record as “preserve bone volume”.
